Assay results taken from ChEMBL document CHEMBL3603789, “N-Lipidated Peptide Dimers: Effective Antibacterial Agents against Gram-Negative Pathogens through Lipopolysaccharide Permeabilization” (J Med Chem, 2015).
Converted amounts (≈) assume the structure as drawn. The source made the active and inactive calls. The calls are words filed in the database; no cut-off is given here. Bridge positions count the residues as written; N and C are the ends. Peptide text beside a SMILES is read from it. I, II: the chains in the order shown. * marks the point of attachment. Butyryl = CCCC(=O)*

Tests used:
[1] = Toxicity in New Zealand white rabbit erythrocytes assessed as hemolytic activity after 60 mins; type: cell-based, Oryctolagus cuniculus; conditions: erythrocyte, 1 h
Klebsiella pneumoniae = assay: Antibacterial activity against Klebsiella pneumoniae DM4299 after 24 hrs by broth microdilution method; type: functional; conditions: DM4299, 24 h
Pseudomonas aeruginosa [2] = assay: Antibacterial activity against Pseudomonas aeruginosa DM23155 after 24 hrs by broth microdilution method; type: functional; conditions: DM23155, 24 h
Escherichia coli = assay: Antibacterial activity against Escherichia coli ATCC 25922 after 24 hrs by broth microdilution method; type: functional; conditions: ATCC 25922, 24 h
Pseudomonas aeruginosa [3] = assay: Antibacterial activity against Pseudomonas aeruginosa DR18531 after 24 hrs by broth microdilution method; type: functional; conditions: DR18531, 24 h
Pseudomonas aeruginosa [4] = assay: Antibacterial activity against Pseudomonas aeruginosa DM4150R after 24 hrs by broth microdilution method; type: functional
Pseudomonas aeruginosa [5] = assay: Antibacterial activity against Pseudomonas aeruginosa DM23257 after 24 hrs by broth microdilution method; type: functional; conditions: DM23257, 24 h
Pseudomonas aeruginosa [6] = assay: Antibacterial activity against Pseudomonas aeruginosa DM23376 after 24 hrs by broth microdilution method; type: functional; conditions: DM23376, 24 h
Pseudomonas aeruginosa [7] = assay: Antibacterial activity against Pseudomonas aeruginosa DU14476 after 24 hrs by broth microdilution method; type: functional; conditions: DU14476, 24 h
Pseudomonas aeruginosa [8] = assay: Antibacterial activity against Pseudomonas aeruginosa DR5790 after 24 hrs by broth microdilution method; type: functional; conditions: DR5790, 24 h
Pseudomonas aeruginosa [9] = assay: Antibacterial activity against Pseudomonas aeruginosa DR4877 after 24 hrs by broth microdilution method; type: functional; conditions: DR4877, 24 h
Pseudomonas aeruginosa [10] = assay: Antibacterial activity against Pseudomonas aeruginosa ATCC 9027 after 24 hrs by broth microdilution method; type: functional; conditions: ATCC 9027, 24 h
Pseudomonas aeruginosa [11] = assay: Antibacterial activity against Pseudomonas aeruginosa ATCC 27853 after 24 hrs by broth microdilution method; type: functional; conditions: ATCC 27853, 24 h
Lipopolysaccharide (LPS) [12] = assay: Displacement of dansylcadaverine from Escherichia coli 0111:B4 LPS at 15 to 30 uM after 5 mins by high-throughput fluorescence displacement assay
Lipopolysaccharide (LPS) [13] = assay: Induction of Escherichia coli 0111:B4 LPS neutralization using p-nitroaniline assessed as concentration required to neutralize 50% after 1 hr by limulus amebocyte lysate assay
Pseudomonas aeruginosa [14] = assay: Induction of 1-N-phenylnaphthylamine uptake in Pseudomonas aeruginosa DM23155 at 400 uM after 1 hr by fluorescence assay relative to polymyxin B; type: functional
Pseudomonas aeruginosa [15] = assay: Antibacterial activity against Pseudomonas aeruginosa DM23155 assessed as log reduction of viable count at 2 times MIC after 5 hrs by time-kill assay relative to control; type: functional
Pseudomonas aeruginosa [16] = assay: Antibacterial activity against Pseudomonas aeruginosa DM23155 assessed as log reduction of viable count at 2 times MIC after 24 hrs by time-kill assay; type: functional, organism-based
Pseudomonas aeruginosa [17] = assay: Antibacterial activity against Pseudomonas aeruginosa DM23155 assessed as log reduction of viable count at 1 time MIC after 24 hrs by time-kill assay; type: functional, organism-based
Pseudomonas aeruginosa [18] = assay: Antibacterial activity against Pseudomonas aeruginosa DM23155 assessed as log reduction of viable count at 1 time MIC after 5 hrs by time-kill assay relative to control; type: functional
Pseudomonas aeruginosa [19] = assay: Induction of cytoplasmic membrane disruption in Pseudomonas aeruginosa DM23155 assessed as membrane integrity at 1 to 2 times MIC after 1 hr by fluorescence assay; type: functional
[20] = Induction of calcein leakage from DOPE/DOPG artificial membrane at 1:32 ratio of compound to lipid by fluorescence assay; type: physicochemical
Pseudomonas aeruginosa [21] = assay: Antibacterial activity against Pseudomonas aeruginosa DM23155 assessed as log reduction of viable count at 2 times MIC after 30 mins by time-kill assay relative to control; type: functional
Lipopolysaccharide (LPS) [22] = assay: Induction of Pseudomonas aeruginosa serotype 10 LPS neutralization using p-nitroaniline assessed as concentration required to neutralize 50% after 1 hr by limulus amebocyte lysate assay

In the case of `N=C(N)NCCC[C@H](NC(=O)CNC(=O)CNC(=O)[C@H](CCCCN)NC(=O)[C@H](CCCNC(=N)N)NC(=O)CNC(=O)[C@@H](N)CCCNC(=N)N)C(=O)N[C@@H](CCCNC(=N)N)C(=O)NCCCC[C@H](NC(=O)[C@H](CCCNC(=N)N)NC(=O)[C@H](CCCNC(=N)N)NC(=O)CNC(=O)CNC(=O)[C@H](CCCCN)NC(=O)[C@H](CCCNC(=N)N)NC(=O)CNC(=O)[C@@H](N)CCCNC(=N)N)C(=O)N[C@@H](CCCCN)C(=O)O` (I: H-RGRKGGRRKK-OH / II: H-RGRKGGRR; amide I:9-II:C), the HC10 [1] is reported as over 10000 µg/mL, the MIC (Klebsiella pneumoniae) is reported as 3 µM (≈ 6.37 µg/mL) and the MIC (Pseudomonas aeruginosa [2]) is reported as 6 µM (≈ 12.7 µg/mL). It also gave an MIC (Escherichia coli) of 6 µM (≈ 12.7 µg/mL), an MIC (Pseudomonas aeruginosa [3]) of 3 µM (≈ 6.37 µg/mL) and an MIC (Pseudomonas aeruginosa [4]) of 6 µM (≈ 12.7 µg/mL). The MIC (Pseudomonas aeruginosa [5]) was 10 µM (≈ 21.2 µg/mL), the MIC (Pseudomonas aeruginosa [6]) was 6 µM (≈ 12.7 µg/mL) and the MIC (Pseudomonas aeruginosa [7]) was 6 µM (≈ 12.7 µg/mL). For the same compound, the MIC (Pseudomonas aeruginosa [8]) was 6 µM (≈ 12.7 µg/mL), the MIC (Pseudomonas aeruginosa [9]) was 6 µM (≈ 12.7 µg/mL) and the MIC (Pseudomonas aeruginosa [10]) was 6 µM (≈ 12.7 µg/mL). For the same compound, the MIC (Pseudomonas aeruginosa [11]) was 6 µM (≈ 12.7 µg/mL), the Activity (Lipopolysaccharide (LPS) [12]) was 84.8% and the EC50 (Lipopolysaccharide (LPS) [13]) was over 1000 µM. The Activity (Pseudomonas aeruginosa [14]) was 1.9%, the FC (Pseudomonas aeruginosa [15]) was 10 and the Activity (Pseudomonas aeruginosa [16]) was “Active”. The Activity (Pseudomonas aeruginosa [17]) was “inactive” and the FC (Pseudomonas aeruginosa [18]) was 2.7.

For `CC(C)[C@H](NC(=O)[C@H](CCCCN)NC(=O)[C@H](CCCNC(=N)N)NC(=O)CNC(=O)[C@@H](N)CCCNC(=N)N)C(=O)N[C@H](C(=O)N[C@@H](CCCNC(=N)N)C(=O)N[C@@H](CCCNC(=N)N)C(=O)NCCCC[C@H](NC(=O)[C@H](CCCNC(=N)N)NC(=O)[C@H](CCCNC(=N)N)NC(=O)[C@@H](NC(=O)[C@@H](NC(=O)[C@H](CCCCN)NC(=O)[C@H](CCCNC(=N)N)NC(=O)CNC(=O)[C@@H](N)CCCNC(=N)N)C(C)C)C(C)C)C(=O)N[C@@H](CCCCN)C(=O)O)C(C)C` (I: H-RGRKVVRRKK-OH / II: H-RGRKVVRR; amide I:9-II:C), the HC10 [1] was over 10000 µg/mL, the MIC (Klebsiella pneumoniae) was 6 µM (≈ 13.7 µg/mL) and the MIC (Pseudomonas aeruginosa [2]) was 6 µM (≈ 13.7 µg/mL). For the same compound, the MIC (Escherichia coli) was 3 µM (≈ 6.87 µg/mL), the MIC (Pseudomonas aeruginosa [3]) was 3 µM (≈ 6.87 µg/mL) and the MIC (Pseudomonas aeruginosa [4]) was 3 µM (≈ 6.87 µg/mL). For the same compound, the MIC (Pseudomonas aeruginosa [5]) was 3 µM (≈ 6.87 µg/mL), the MIC (Pseudomonas aeruginosa [6]) was 6 µM (≈ 13.7 µg/mL) and the MIC (Pseudomonas aeruginosa [7]) was 6 µM (≈ 13.7 µg/mL). It also gave an MIC (Pseudomonas aeruginosa [8]) of 10 µM (≈ 22.9 µg/mL), an MIC (Pseudomonas aeruginosa [9]) of 6 µM (≈ 13.7 µg/mL) and an MIC (Pseudomonas aeruginosa [10]) of 6 µM (≈ 13.7 µg/mL). The MIC (Pseudomonas aeruginosa [11]) was 6 µM (≈ 13.7 µg/mL), the Activity (Lipopolysaccharide (LPS) [12]) was 82.4% and the EC50 (Lipopolysaccharide (LPS) [13]) was over 1000 µM. The Activity (Pseudomonas aeruginosa [19]) was over 80%, the Activity [20] was “Active” and the Activity (Pseudomonas aeruginosa [21]) was “inactive”.

`CCCC(=O)N[C@@H](CCCNC(=N)N)C(=O)NCC(=O)N[C@@H](CCCNC(=N)N)C(=O)N[C@@H](CCCCN)C(=O)NCC(=O)NCC(=O)N[C@@H](CCCNC(=N)N)C(=O)N[C@@H](CCCNC(=N)N)C(=O)NCCCC[C@H](NC(=O)[C@H](CCCNC(=N)N)NC(=O)[C@H](CCCNC(=N)N)NC(=O)CNC(=O)CNC(=O)[C@H](CCCCN)NC(=O)[C@H](CCCNC(=N)N)NC(=O)CNC(=O)[C@H](CCCNC(=N)N)NC(=O)CCC)C(=O)N[C@@H](CCCCN)C(=O)O` (I: Butyryl-RGRKGGRRKK-OH / II: Butyryl-RGRKGGRR; amide I:9-II:C) gave an HC10 [1] of over 10000 µg/mL, an MIC (Klebsiella pneumoniae) of 6 µM (≈ 13.6 µg/mL) and an MIC (Pseudomonas aeruginosa [2]) of 6 µM (≈ 13.6 µg/mL). The MIC (Escherichia coli) was 3 µM (≈ 6.79 µg/mL), the Activity (Lipopolysaccharide (LPS) [12]) was 72.4% and the EC50 (Lipopolysaccharide (LPS) [13]) was 769 µM. For the same compound, the EC50 (Lipopolysaccharide (LPS) [22]) was 345 µM and the Activity (Pseudomonas aeruginosa [14]) was 2.5%.
